The values below come from ChEMBL document CHEMBL1130174, “Pyrrolidine-3-carboxylic acids as endothelin antagonists. 2. Sulfonamide-based ETA/ETB mixed antagonists” (J Med Chem, 1997).

The target of data set [1] is T1, Endothelin receptor type B (Sus scrofa, UniProt P35463).
T1 sequence (P35463 whole entry): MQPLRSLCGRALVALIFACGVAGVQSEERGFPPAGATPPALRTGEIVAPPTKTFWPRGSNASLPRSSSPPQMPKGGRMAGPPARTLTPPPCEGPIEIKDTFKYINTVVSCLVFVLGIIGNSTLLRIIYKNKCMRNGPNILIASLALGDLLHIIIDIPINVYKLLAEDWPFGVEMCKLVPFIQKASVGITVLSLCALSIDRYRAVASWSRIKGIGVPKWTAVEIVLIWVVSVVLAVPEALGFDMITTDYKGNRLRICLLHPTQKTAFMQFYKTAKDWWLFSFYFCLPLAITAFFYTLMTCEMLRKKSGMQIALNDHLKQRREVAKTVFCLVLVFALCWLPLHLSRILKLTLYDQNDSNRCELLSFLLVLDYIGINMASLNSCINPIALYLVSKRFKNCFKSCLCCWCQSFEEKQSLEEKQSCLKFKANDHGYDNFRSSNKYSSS
Kind of data set: Ability to displace endothelin ([125I]ET-3) from endothelin B receptor derived from cerebellar tissue of porcine.

The target in the next data set is T2, Endothelin-1 receptor (Rattus norvegicus, UniProt P26684).
T2 sequence (P26684 whole entry): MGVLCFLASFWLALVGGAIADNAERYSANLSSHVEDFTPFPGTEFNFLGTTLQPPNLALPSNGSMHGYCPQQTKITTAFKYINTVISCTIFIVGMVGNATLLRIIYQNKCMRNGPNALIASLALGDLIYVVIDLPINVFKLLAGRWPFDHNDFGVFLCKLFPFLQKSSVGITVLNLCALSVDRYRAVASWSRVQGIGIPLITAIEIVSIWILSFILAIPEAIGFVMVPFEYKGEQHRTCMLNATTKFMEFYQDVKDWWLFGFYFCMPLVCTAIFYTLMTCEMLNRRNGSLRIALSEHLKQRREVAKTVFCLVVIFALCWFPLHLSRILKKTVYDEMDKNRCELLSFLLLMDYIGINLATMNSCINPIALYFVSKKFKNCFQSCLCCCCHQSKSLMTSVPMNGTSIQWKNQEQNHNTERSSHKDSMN
The data set is described as follows: Ability to displace endothelin ([125I]ET1) from endothelin A receptor derived from MMQ cells of rodent. The class given is cell-based, Rodentia sp.

A short description of data set [2]: Ratio of endothelin A receptor and endothelin B receptor.
The nature of data set [3]: Oral bioavailability in rat. Type of data set: ADME, organism-based. The settings on record: in vivo.
Data set [4] can be described thus: Half-life is obtained after intravenous dosing of rats. Type of data set: ADME, organism-based. The settings on record: rat, in vivo.

SMILES strings stand for the structures.

As a reminder, the IC50 is the midpoint of a concentration-inhibition curve. Low readings indicate inhibition by little substance, high ones a need for much substance. On to `CCCN(CCN1C[C@H](c2ccc3c(c2)OCO3)[C@@H](C(=O)O)[C@@H]1c1ccc(OC)cc1)S(=O)(=O)CCC`, for which the results for the IC50 (in data set [1]; on Endothelin-1 receptor) were 36 nM and 1.6 nM, respectively. Further, the Ratio in data set [2] is 22.

Take `CCCCN(CCN1C[C@H](c2ccc3c(c2)OCO3)[C@@H](C(=O)O)[C@@H]1c1ccc(OC)cc1)C(=O)CCC`: the IC50 in data set [1] was found to be 850 nM; at Endothelin-1 receptor, 20 nM. The Ratio in data set [2] stood at 43.

As to `CCCN(CCN1C[C@H](c2ccc3c(c2)OCO3)[C@@H](C(=O)O)[C@@H]1c1ccc(OC)c(F)c1)S(=O)(=O)CC(C)C`, the IC50 came to 1.6 nM in data set [1] and 0.21 nM at Endothelin-1 receptor. Further, in data set [2], the Ratio came out at 7.6.

Consider `CCCCCS(=O)(=O)N(CCC)CCN1C[C@H](c2ccc3c(c2)OCO3)[C@@H](C(=O)O)[C@@H]1c1ccc(OCOC)cc1`, for which the values for the IC50 (in data set [1]; at Endothelin-1 receptor) were 5.2 nM and 0.62 nM, respectively. The Ratio in data set [2] came out at 8.4.

Turning to `CCCCCS(=O)(=O)N(CCC)CCN1C[C@H](c2ccc3c(c2)OCO3)[C@@H](C(=O)O)[C@@H]1c1ccc(OCCC)cc1`, the values for the half-maximal inhibitory concentration (IC50) (in data set [1]; at Endothelin-1 receptor) were 610 nM and 48 nM, respectively. In addition, in data set [2], the Ratio amounted to 13.

Turning to `CCCN(CCN1C[C@H](c2ccc3c(c2)OCO3)[C@@H](C(=O)O)[C@@H]1c1ccc(OC)c(F)c1)S(=O)(=O)CCC(C)C`, the IC50 in data set [1] was 1.2 nM; at Endothelin-1 receptor, 0.46 nM. The Ratio in data set [2] came out at 2.6.

`CCCN(CCN1C[C@H](c2ccc3c(c2)OCO3)[C@@H](C(=O)O)[C@@H]1c1ccc(OC)cc1)S(=O)(=O)Cc1ccccc1` came in with an IC50 in data set [1] of 34 nM.

Take `CCCN(CCN1C[C@H](c2ccc3c(c2)OCO3)[C@@H](C(=O)O)[C@@H]1c1ccc(OC)c(F)c1)S(=O)(=O)CCCCl` (stereo in doubt; 14e) [listing 1 of 2 here]: the Ratio in data set [2] was 2.5.

In data set [1], `CCCN(CCN1C[C@H](c2ccc3c(c2)OCO3)[C@@H](C(=O)O)[C@@H]1c1ccc(OC)c(F)c1)S(=O)(=O)CCCC(F)(F)F` (stereo in doubt; 14f) had an IC50 of 0.98 nM.

Regarding `CCCN(CCN1C[C@H](c2ccc3c(c2)OCO3)[C@@H](C(=O)O)[C@@H]1c1ccc(OC)cc1)S(=O)(=O)c1ccc(OC)cc1`, the IC50 in data set [1] was 66 nM; on Endothelin-1 receptor it was 0.53 nM. Moreover, in data set [2], the Ratio is 120.

Turning to `CCCCN(CCN1C[C@H](c2ccc3c(c2)OCO3)[C@@H](C(=O)O)[C@@H]1c1ccc(OC)cc1)S(=O)(=O)CCC`, the IC50 stood at 60 nM in data set [1] and 2 nM on Endothelin-1 receptor. In addition, the Ratio in data set [2] worked out at 30.

Consider `CCCN(CCN1C[C@H](c2ccc3c(c2)OCO3)[C@@H](C(=O)O)[C@@H]1c1ccc(OC)c(F)c1)S(=O)(=O)Cc1ccccc1`, for which the IC50 amounted to 2.9 nM in data set [1] and 2.7 nM on Endothelin-1 receptor. In addition, the Ratio in data set [2] came out at 1.1.

As for `CCCCS(=O)(=O)N(CCC)CCN1C[C@H](c2ccc3c(c2)OCO3)[C@@H](C(=O)O)[C@@H]1c1ccc(OC)c(F)c1` (stereo in doubt; 14a), in data set [1], the IC50 turned out to be 1 nM.

In the case of `CCCN(CCN1C[C@H](c2ccc3c(c2)OCO3)[C@@H](C(=O)O)[C@@H]1c1ccc(OC)cc1)S(=O)(=O)c1ccccc1`, the IC50 in data set [1] was determined as 210 nM; at Endothelin-1 receptor, 1.4 nM. In addition, in data set [2], the Ratio amounted to 150.

Turning to `CCCS(=O)(=O)N(CCN1C[C@H](c2ccc3c(c2)OCO3)[C@@H](C(=O)O)[C@@H]1c1ccc(OC)cc1)CC(C)C`, the IC50 in data set [1] amounted to 62 nM; on Endothelin-1 receptor it was 8.1 nM. Further, the Ratio in data set [2] was determined as 7.7.

Turning to `CCCCCS(=O)(=O)N(CCC)CCN1C[C@H](c2ccc3c(c2)OCO3)[C@@H](C(=O)O)[C@@H]1c1ccc(F)c(F)c1`, the values for the IC50 (in data set [1]; at Endothelin-1 receptor) were 68 nM and 18 nM, respectively. Also, in data set [2], the Ratio was 3.8.

Turning to `CCCCCS(=O)(=O)N(CCC)CCN1C[C@H](c2ccc3c(c2)OCO3)[C@@H](C(=O)O)[C@@H]1c1ccc(OC)c(OC)c1`, the results for the IC50 (in data set [1]; at Endothelin-1 receptor) were 73 nM and 2.3 nM, respectively. In addition, in data set [2], the Ratio came to 32.

For the molecule `CCCCCS(=O)(=O)N(CCC)CCN1C[C@H](c2ccc3c(c2)OCO3)[C@@H](C(=O)O)[C@@H]1c1ccc(OC)cc1`, the IC50 in data set [1] amounted to 4.1 nM; at Endothelin-1 receptor it was 0.57 nM. Further, the Ratio in data set [2] came out at 7.2.

As to `CCCCCS(=O)(=O)N(CCC)CCN1C[C@H](c2ccc3c(c2)OCO3)[C@@H](C(=O)O)[C@@H]1c1ccc(OC)c(F)c1` (stereo in doubt; 13e), in data set [1], the IC50 is 0.85 nM.

Take `CCCN(CCN1C[C@H](c2ccc3c(c2)OCO3)[C@@H](C(=O)O)[C@@H]1c1ccc(OC)c(F)c1)S(=O)(=O)CCCCl` (stereo in doubt; 14e) [listing 2 of 2 here]: the IC50 in data set [1] came to 1 nM; on Endothelin-1 receptor, 0.4 nM.

For the molecule `CCCCCS(=O)(=O)N(CCC)CCN1C[C@H](c2ccc3c(c2)OCO3)[C@@H](C(=O)O)[C@@H]1c1ccc2c(c1)OCCO2`, the IC50 was determined as 7 nM in data set [1] and 0.66 nM at Endothelin-1 receptor. Besides, the Ratio in data set [2] was found to be 10.

As for `CCCCCCCS(=O)(=O)N(CCC)CCN1C[C@H](c2ccc3c(c2)OCO3)[C@@H](C(=O)O)[C@@H]1c1ccc(OC)cc1`, the half-maximal inhibitory concentration (IC50) stood at 57 nM in data set [1] and 5.1 nM at Endothelin-1 receptor. Also, the Ratio in data set [2] stood at 11.

Turning to `CCCN(CCN1C[C@H](c2ccc3c(c2)OCO3)[C@@H](C(=O)O)[C@@H]1c1ccc(OC)cc1)S(=O)(=O)c1ccc(C)cc1`, the 50% inhibitory concentration (IC50) in data set [1] was 85 nM; at Endothelin-1 receptor, 8.3 nM. Moreover, in data set [2], the Ratio was 10.

For `CCCN(CCN1C[C@H](c2ccc3c(c2)OCO3)[C@@H](C(=O)O)[C@@H]1c1ccc(OC)cc1)S(=O)(=O)CC`, the concentration for half-maximal inhibition (IC50) in data set [1] was determined as 95 nM; on Endothelin-1 receptor, 1.2 nM. In data set [2], the Ratio came out at 79.

By bioavailability is commonly meant dose-corrected exposure relative to a reference, in per cent. In turn, `CCCCN(CCCC)C(=O)CN1C[C@H](c2ccc3c(c2)OCO3)[C@@H](C(=O)O)[C@@H]1c1ccc(OC)cc1` displayed a bioavailability in data set [3] of 70%.

What is called half-life is the time needed for the level to fall by half in the phase considered. A low value points to rapid decline. Turning to `COc1ccccc1Oc1c(NS(=O)(=O)c2ccc(C(C)(C)C)cc2)nc(-c2ncccn2)nc1OCCO` [BOSENTAN], the bioavailability in data set [3] stood at 30%. This molecule also had a half-life in data set [4] of 4 h.

`CCCN(CCN1C[C@H](c2ccc3c(c2)OCO3)[C@@H](C(=O)O)[C@@H]1c1ccc(OC)cc1)S(=O)(=O)c1ccc(Cl)cc1`: the IC50 in data set [1] turned out to be 41 nM; at Endothelin-1 receptor it was 6.3 nM. Besides, in data set [2], the Ratio was 6.5.

Take `CCCS(=O)(=O)N(C)CCN1C[C@H](c2ccc3c(c2)OCO3)[C@@H](C(=O)O)[C@@H]1c1ccc(OC)cc1`: the half-maximal inhibitory concentration (IC50) came to 260 nM in data set [1] and 10 nM on Endothelin-1 receptor. Moreover, the Ratio in data set [2] was 26.

`CCCCCCS(=O)(=O)N(CCC)CCN1C[C@H](c2ccc3c(c2)OCO3)[C@@H](C(=O)O)[C@@H]1c1ccc(OC)cc1`: the half-inhibitory concentration (IC50) is 4.5 nM in data set [1] and 0.43 nM on Endothelin-1 receptor. For the same molecule, the Ratio in data set [2] was determined as 10.

Regarding `CCCCCS(=O)(=O)N(CCC)CCN1C[C@H](c2ccc3c(c2)OCO3)[C@@H](C(=O)O)[C@@H]1c1ccc(OCC)c(F)c1`, the IC50 in data set [1] amounted to 2.6 nM; at Endothelin-1 receptor, 1.3 nM. Further, the Ratio in data set [2] is 2.

`CCCN(CCN1C[C@H](c2ccc3c(c2)OCO3)[C@@H](C(=O)O)[C@@H]1c1ccc(OC)cc1)S(=O)(=O)CCOC`: the values for the half-inhibitory concentration (IC50) (in data set [1]; at Endothelin-1 receptor) were 77 nM and 5.2 nM, respectively. Besides, the Ratio in data set [2] was 15.

Consider `CCCCS(=O)(=O)N(CCC)CCN1C[C@H](c2ccc3c(c2)OCO3)[C@@H](C(=O)O)[C@@H]1c1ccc(OC)cc1`, for which the half-inhibitory concentration (IC50) in data set [1] turned out to be 9.4 nM; on Endothelin-1 receptor, 2 nM. For the same molecule, the Ratio in data set [2] was found to be 4.7.

With `CCCCCCS(=O)(=O)N(CCC)CCN1C[C@H](c2ccc3c(c2)OCO3)[C@@H](C(=O)O)[C@@H]1c1ccc(OC)c(F)c1` (stereo in doubt; 14b), in data set [1], the IC50 was found to be 1.5 nM.

For `CCCN(CCN1C[C@H](c2ccc3c(c2)OCO3)[C@@H](C(=O)O)[C@@H]1c1ccc(OC)cc1)S(=O)(=O)CC(C)C`, the IC50 came to 5.2 nM in data set [1] and 0.78 nM on Endothelin-1 receptor. The Ratio in data set [2] turned out to be 6.6.

Regarding `CCCN(CCN1C[C@H](c2ccc3c(c2)OCO3)[C@@H](C(=O)O)[C@@H]1c1ccc(OC)cc1)S(=O)(=O)CCCCl`, the IC50 is 6.3 nM in data set [1] and 2 nM at Endothelin-1 receptor. The Ratio in data set [2] stood at 3.1.
